According to ChEMBL document CHEMBL1143165, “N-[omega-[4-(2-methoxyphenyl)-1-piperazinyl]alkyl]-2-quinolinamines as high-affinity fluorescent 5-HT1A receptor ligands” (J Med Chem, 2008):
pEC50, pKi: −log10 of the molar value. The source made the active and inactive calls. No cut-off for these calls is given here.

Key:
[1] = target: T1, 5-hydroxytryptamine receptor 1A (Homo sapiens, UniProt P08908); experiment: Displacement of [3H]8-OH-DPAT from human 5HT1A receptor expressed in HEK293 cells after 120 mins; type: cell-based
T1 sequence (P08908 whole entry): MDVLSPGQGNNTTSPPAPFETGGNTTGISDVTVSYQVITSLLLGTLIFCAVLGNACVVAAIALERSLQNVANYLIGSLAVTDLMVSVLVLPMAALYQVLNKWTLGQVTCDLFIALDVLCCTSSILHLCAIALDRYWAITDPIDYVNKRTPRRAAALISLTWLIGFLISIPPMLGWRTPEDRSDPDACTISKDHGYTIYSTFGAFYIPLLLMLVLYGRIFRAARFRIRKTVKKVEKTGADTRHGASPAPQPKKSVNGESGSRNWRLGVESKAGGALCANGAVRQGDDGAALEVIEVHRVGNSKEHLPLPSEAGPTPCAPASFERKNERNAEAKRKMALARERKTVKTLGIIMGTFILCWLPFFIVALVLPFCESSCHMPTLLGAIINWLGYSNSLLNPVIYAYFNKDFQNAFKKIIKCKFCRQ

[2] = Agonist activity at 5HT1A receptor in guinea pig ileum assessed as inhibition of electrically-stimulated muscle contraction relative to baseline; type: functional, Cavia porcellus; design: scale not given: the % may be the effect or the level left
[3] = Agonist activity at 5HT1A receptor in guinea pig ileum assessed as inhibition of electrically-stimulated muscle contraction; type: functional, tissue-based; details: Cavia porcellus
[4] = species: Cavia porcellus; experiment: Reversal of agonist activity at 5HT1A receptor in guinea pig in presence of 5HT1A antagonist WAY-100635; type: functional

COc1ccccc1N1CCN(CCCCNc2ccc3ccccc3n2)CC1
pKi [1]: 8.01

COc1ccc2ccc(NCCN3CCN(c4ccccc4OC)CC3)nc2c1
pKi [1]: 8.68

COc1ccccc1N1CCN(CCCCNc2ccc3cc(N)ccc3n2)CC1
Activity [2]: 81% | pKi [1]: 9.42 | pEC50 [3]: 4.21

COc1ccc2ccc(NCCCCCN3CCN(c4ccccc4OC)CC3)nc2c1
pKi [1]: 9.30

COc1ccccc1N1CCN(CCCCNc2ccc3cc(C)ccc3n2)CC1
pKi [1]: 9.27

COc1ccccc1N1CCN(CCCNc2ccc3ccccc3n2)CC1
pKi [1]: 7.89

COc1ccc2ccc(NCCCCN3CCN(c4ccccc4OC)CC3)nc2c1
pKi [1]: 8.34

COc1ccc2ccc(NCCCN3CCN(c4ccccc4OC)CC3)nc2c1
pKi [1]: 9.70

COc1ccc2nc(NCCCCCN3CCN(c4ccccc4OC)CC3)ccc2c1
pKi [1]: 8.59

COc1ccc2nc(NCCCN3CCN(c4ccccc4OC)CC3)ccc2c1
pKi [1]: 7.66

COc1ccccc1N1CCN(CCNc2ccc3cc([N+](=O)[O-])ccc3n2)CC1
pKi [1]: 7.85

COc1ccc2nc(NCCCCN3CCN(c4ccccc4OC)CC3)ccc2c1
Activity [4]: Active | pKi [1]: 9.70 | pEC50 [3]: 4.46

COc1ccccc1N1CCN(CCNc2ccc3ccccc3n2)CC1
pKi [1]: 7.48

COc1ccccc1N1CCN(CCCCCNc2ccc3ccccc3n2)CC1
pKi [1]: 10.52

COc1ccc2nc(NCCN3CCN(c4ccccc4OC)CC3)ccc2c1
pKi [1]: 7.55
